From patent US20230320986A1, “TARGETED ANT[…] SYSTEM FOR CANCER TREATMENT” (priority 2020, published 2023)

Legend:
M21 cells = experiment: Cytotoxicity in cultured cells; type: cell-based, human; details: 25 µM drug, 30 min treatment
Method: (§1) For assessment of the UTO cytotoxicity the cytotoxicity of RPAR-UTO-PS, UTO-PS, PS, free UTO, and free DOX in cultured PPC-1 (FIG. 4) and M21 (FIG. 5) cells after 30 min treatment over a range of drug concentrations was tested.

PPC-1 cells = experiment: Cytotoxicity in cultured cells; type: cell-based, human; details: 30 min treatment
Method: as §1

[1] = Encapsulation efficiency in polymersomes (section 3.2); type: physicochemical; details: thin-film hydration, after size exclusion chromatography
Method: For the encapsulation of the drug inside PS, 50 nmols of drug were dissolved in 100 µL of acetone and added to the polymers dissolved in acetone (total amount of polymer was 5 mg). The acetone was evaporated to form the polymer/drug film and the PS were formed as described above.
PS were purified by size exclusion chromatography. Agarose beads with a diameter of 45-165 µm ([…] 4B gel) were used as stationary phase. The height of the Sephadex gel in a column was 8 cm (volume 25.13 mL). The PS sample was eluted with PBS pH 7.4.
The amount of encapsulated drug was quantified using a Nanodrop 2000c UV-VIS spectrophotometer (Thermo Scientific, USA). For drug quantification, serial dilutions of drug in MeOH:water 1:1 were prepared and the absorbance at 490 nm was measured. Using gathered data, the linear trend line was constructed in MS Excel program and the formula was further used to evaluate the concentration of drug inside PS.
For assessment of the UTO encapsulation efficiency the above depicted anthracycline derivative was encapsulated in a PS using a thin-film hydration method. After encapsulation the sample was purified by size exclusion chromatography to remove non-encapsulated drug. […]

[2] = Encapsulation efficiency, comparison PS-UTO vs. PS-DOX (section 4); type: physicochemical; details: PEG-PCL-PS
Method: Polymersomes were prepared by dissolving 5 mg of PEG-PCL in 0.3 mL acetone. The acetone was evaporated with nitrogen flow forming a thin polymeric film on the wall of the glass vial. The film was hydrated with 0.5 mL of PBS pH 7.4 previously purged with nitrogen flow, heated for 30 seconds in a 65° C. water bath, and sonicated for 30 seconds. The heating and sonication steps were repeated until the PS were formed and polymer aggregates were not observed in the suspension. The final volume of PS samples was 0.5 mL and the total polymer concentration 10 mg/mL.
For the PS encapsulation of UTO […] of UTO were dissolved in 100 µL of acetone (0.5 mM concentration) and added to the polymers dissolved in acetone (total amount of polymer - 5 mg, UTO concentration 0.125 mM). The acetone was evaporated to form the polymer/drug film and the PS were formed as described above.
For DOX encapsulation the polymeric film was hydrated with 2 mM DOX solution in PBS pH 7.4 and the PS were formed as described above. […]
The UTO and DOX PS-encapsulated amounts were quantified using UV-VIS spectrometry (Thermo Scientific, USA). For UTO quantification, serial dilutions of UTO in MeOH:water 1:1 were prepared and the absorbance at 485 nm was used for calibration. For DOX quantification, serial dilutions of DOX in PBS were prepared and also the absorbance at 485 nm was measured. […]

[3] = Cumulative drug release from polymersomes; type: physicochemical; details: after 48 h, 37° C., PBS
Method: To further evaluate the UTO and DOX cumulative release behavior from polymersomes, UTO-and DOX-loaded PS were incubated at 37° C. in PBS (0.25 mL) for different time periods (0; 1; 4; 24; and 48 h). The samples were centrifuged using Amicon Ultra centrifugal filters (MWCO 100 kDa) for 20 min at 6,000 g at RT. The fluorescence of the filtrates was measured at 485 nm/535 nm (0.1 s) using a Victor X5 Multilabel Microplate Reader (Perkin Elmer, USA) to quantify the released drug amount.

| Compound | cell viability (M21 cells) | cell viability (PPC-1 cells; 2.5 µM drug) | cell viability (PPC-1 cells; 25 µM drug) | encapsulation efficiency (EE) [1] | encapsulation efficiency, times lower compared to UTO [2] | encapsulation efficiency (EE) ([2]; film hydration, after purification) | drug released from the PS [3] | viability at 25 µM (M21 cells; Homo sapiens, 0.5 h, read-out: cell viability) | viability at 2.5 µM (PPC-1 cells; Homo sapiens, 0.5 h, 2.5 µM drug, read-out: cell viability) | viability at 25 µM (PPC-1 cells; Homo sapiens, 0.5 h, 25 µM drug, read-out: cell viability) |
| --- | --- | --- | --- | --- | --- | --- | --- | --- | --- | --- |
| COc1cccc2c1C(=O)c1c(O)c3c(c(O)c1C2=O)C[C@@](O)(C(=O)CO)C[C@@H]3O[C@H]1C[C@H](N)[C@H](O)[C@H](C)O1 [DOX, doxorubicin] | 58% | 87% | 56% | 1% | approximately 20 times | 2.3% | approximately 10% |  |  |  |
| CC(=O)OCOC(=O)N1CO[C@@H]2[C@H](C)O[C@@H](O[C@H]3C[C@](N)(C(C)O)Cc4c(O)c5c(c(O)c43)C(=O)c3ccccc3C5=O)C[C@@H]21 (some centres unmarked) [UTO] |  |  |  |  |  |  | less than 3% | 15% | 68% | 14% |
